Reference: PubChem BioAssay AID1919001 (Molecular Pharmacology Branch, DTP, NCI, 2023)
Several values for one entry are separate records, joined by “and”; a condition that tells them apart may be missing. Identical values can stand only once. Values belong to the compound of their own block, whether it stands above or below them.

Test system: 699152-130-R-J1-PDC complex spheroid growth
Experiment: Anticancer human tumor 699152-130-R-J1-PDC patient-derived pancreatic carcinoma cell line growth inhibition [AhR]
Conditions: for viability, T/C: stronger effect = lower value
In short: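 Complex tumor spheroids co-cultured with HUVEC and human MSC stroma; AhR antagonists tested in combination with standard-of-care and investigational agents. Top concentration at or near clinical Cmax (else 10 microM), half-log dilutions; growth expressed as percent test/control.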

[1] = curve of first compound, second compound 0.1 µM
[2] = curve of first compound, second compound 0.316 µM
[3] = curve of first compound, second compound 1 µM
[4] = curve of first compound, second compound 3.16 µM
[5] = curve of first compound, second compound 10 µM
[6] = second compound 0.1 µM, first compound 0.0316 µM
[7] = second compound 0.1 µM, first compound 0.1 µM
[8] = second compound 0.1 µM, first compound 0.316 µM
[9] = second compound 0.1 µM, first compound 1 µM
[10] = second compound 0.1 µM, first compound 3.16 µM
[11] = second compound 0.1 µM, first compound 10 µM
[12] = second compound 0.316 µM, first compound 0.0316 µM
[13] = second compound 0.316 µM, first compound 0.1 µM
[14] = second compound 0.316 µM, first compound 0.316 µM
[15] = second compound 0.316 µM, first compound 1 µM
[16] = second compound 0.316 µM, first compound 3.16 µM
[17] = second compound 0.316 µM, first compound 10 µM
[18] = second compound 1 µM, first compound 0.0316 µM
[19] = second compound 1 µM, first compound 0.1 µM
[20] = second compound 1 µM, first compound 0.316 µM
[21] = second compound 1 µM, first compound 1 µM
[22] = second compound 1 µM, first compound 3.16 µM
[23] = second compound 1 µM, first compound 10 µM
[24] = second compound 3.16 µM, first compound 0.0316 µM
[25] = second compound 3.16 µM, first compound 0.1 µM
[26] = second compound 3.16 µM, first compound 0.316 µM
[27] = second compound 3.16 µM, first compound 1 µM
[28] = second compound 3.16 µM, first compound 3.16 µM
[29] = second compound 3.16 µM, first compound 10 µM
[30] = second compound 10 µM, first compound 0.0316 µM
[31] = second compound 10 µM, first compound 0.1 µM
[32] = second compound 10 µM, first compound 0.316 µM
[33] = second compound 10 µM, first compound 1 µM
[34] = second compound 10 µM, first compound 3.16 µM
[35] = second compound 10 µM, first compound 10 µM
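Also: compound exposure lasted 7 days after spheroids had grown for 3 days.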

SMILES: Nc1ncn(C2CC(O)C(CO)S2)c(=O)n1 (configuration not stated)
viability, T/C (compound 0.000949 µM): 98% and 103% and 102%
viability, T/C (compound 0.003 µM): 105% and 110% and 111%
viability, T/C (compound 0.00949 µM): 97% and 102% and 112%
viability, T/C (compound 0.03 µM): 99.5% and 104% and 110%
viability, T/C (compound 0.0949 µM): 110% and 101% and 95.2%
viability, T/C (compound 0.3 µM): 111% and 96.2% and 102%
IC50 (curve of compound): > 300 nM

SMILES: O=C(C=Cn1cnc(-c2cc(C(F)(F)F)cc(C(F)(F)F)c2)n1)NNc1cnccn1 + Cc1cncc(-c2nc(NCCc3c[nH]c4ccccc34)c3ncn(C(C)C)c3n2)c1
IC50 [1]: > 3000 nM
IC50 [2]: > 3000 nM
IC50 [3]: > 3000 nM
IC50 [4]: > 3000 nM
IC50 [5]: < 9.49 nM
viability, T/C (second compound 0.1 µM, first compound 0.00949 µM): 97.5%
viability, T/C (second compound 0.1 µM, first compound 0.03 µM): 97.4%
viability, T/C (second compound 0.1 µM, first compound 0.0949 µM): 86.4%
viability, T/C (second compound 0.1 µM, first compound 0.3 µM): 81.4%
viability, T/C (second compound 0.1 µM, first compound 0.949 µM): 69.4%
viability, T/C (second compound 0.1 µM, first compound 3 µM): 67.8%
viability, T/C (second compound 0.316 µM, first compound 0.00949 µM): 83.2%
viability, T/C (second compound 0.316 µM, first compound 0.03 µM): 92%
viability, T/C (second compound 0.316 µM, first compound 0.0949 µM): 89.2%
viability, T/C (second compound 0.316 µM, first compound 0.3 µM): 76.3%
viability, T/C (second compound 0.316 µM, first compound 0.949 µM): 76.8%
viability, T/C (second compound 0.316 µM, first compound 3 µM): 74.2%
viability, T/C (second compound 1 µM, first compound 0.00949 µM): 102%
viability, T/C (second compound 1 µM, first compound 0.03 µM): 111%
viability, T/C (second compound 1 µM, first compound 0.0949 µM): 92.9%
viability, T/C (second compound 1 µM, first compound 0.3 µM): 87.1%
viability, T/C (second compound 1 µM, first compound 0.949 µM): 79.7%
viability, T/C (second compound 1 µM, first compound 3 µM): 72.2%
viability, T/C (second compound 3.16 µM, first compound 0.00949 µM): 118%
viability, T/C (second compound 3.16 µM, first compound 0.03 µM): 113%
viability, T/C (second compound 3.16 µM, first compound 0.0949 µM): 93.9%
viability, T/C (second compound 3.16 µM, first compound 0.3 µM): 97.2%
viability, T/C (second compound 3.16 µM, first compound 0.949 µM): 76.2%
viability, T/C (second compound 3.16 µM, first compound 3 µM): 70.5%
viability, T/C (second compound 10 µM, first compound 0.00949 µM): 20.1%
viability, T/C (second compound 10 µM, first compound 0.03 µM): 22.6%
viability, T/C (second compound 10 µM, first compound 0.0949 µM): 25.2%
viability, T/C (second compound 10 µM, first compound 0.3 µM): 26.4%
viability, T/C (second compound 10 µM, first compound 0.949 µM): 35%
viability, T/C (second compound 10 µM, first compound 3 µM): 32.9%

SMILES: O=C(C=Cc1cccc(S(=O)(=O)Nc2ccccc2)c1)NO + CC(CO)NC(=O)c1cc(-c2ccc(Cl)cc2)nn(-c2cnn(C)c2)c1=O
IC50 [1]: > 10000 nM
IC50 [2]: > 10000 nM
IC50 [3]: > 10000 nM
IC50 [4]: > 10000 nM
IC50 [5]: > 10000 nM
viability, T/C [6]: 102%
viability, T/C [7]: 102%
viability, T/C [8]: 111%
viability, T/C [9]: 112%
viability, T/C [10]: 96.8%
viability, T/C [11]: 79.1%
viability, T/C [12]: 92.8%
viability, T/C [13]: 107%
viability, T/C [14]: 111%
viability, T/C [15]: 106%
viability, T/C [16]: 102%
viability, T/C [17]: 76.2%
viability, T/C [18]: 90.2%
viability, T/C [19]: 96.8%
viability, T/C [20]: 104%
viability, T/C [21]: 101%
viability, T/C [22]: 94.3%
viability, T/C [23]: 82.6%
viability, T/C [24]: 84.2%
viability, T/C [25]: 83.8%
viability, T/C [26]: 93.9%
viability, T/C [27]: 95.4%
viability, T/C [28]: 84%
viability, T/C [29]: 83.9%
viability, T/C [30]: 85%
viability, T/C [31]: 95.4%
viability, T/C [32]: 81.7%
viability, T/C [33]: 89.4%
viability, T/C [34]: 90.5%
viability, T/C [35]: 79.4%

Now from value to compound, other results behind:

IC50 [1]: 898 nM
IC50 [2]: 837 nM
IC50 [3]: 889 nM
IC50 [4]: 512 nM
IC50 [5]: < 31.6 nM
SMILES: NS(=O)(=O)OCC1CC(n2ccc3c(NC4CCc5ccccc54)ncnc32)CC1O (configuration not stated) + Cc1cncc(-c2nc(NCCc3c[nH]c4ccccc34)c3ncn(C(C)C)c3n2)c1
viability, T/C [6]: 112%
viability, T/C [7]: 128%
viability, T/C [8]: 145%
viability, T/C [9]: 41.8%
viability, T/C [10]: 21.5%
viability, T/C [11]: 20.9%
viability, T/C [12]: 114%
viability, T/C [13]: 132%
viability, T/C [14]: 147%
viability, T/C [15]: 35.2%
viability, T/C [16]: 18.9%
viability, T/C [17]: 21.4%
viability, T/C [18]: 131%
viability, T/C [19]: 156%
viability, T/C [20]: 149%
viability, T/C [21]: 39.1%
viability, T/C [22]: 18.8%
viability, T/C [23]: 18.3%
viability, T/C [24]: 104%
viability, T/C [25]: 103%
viability, T/C [26]: 74.2%
viability, T/C [27]: 16.5%
viability, T/C [28]: 8.14%
viability, T/C [29]: 9.66%
viability, T/C [30]: 23.7%
viability, T/C [31]: 17.8%
viability, T/C [32]: 10.1%
viability, T/C [33]: 5.16%
viability, T/C [34]: 4.2%
viability, T/C [35]: 3.67%

IC50 [1]: > 1000 nM
IC50 [2]: > 1000 nM
IC50 [3]: > 1000 nM
IC50 [4]: > 1000 nM
IC50 [5]: > 1000 nM
SMILES: Nc1ncn(C2CC(O)C(CO)O2)c(=O)n1 (configuration not stated) + Cc1ccccc1N=Nc1ccc(NC(=O)c2ccnn2C)c(C)c1
viability, T/C (second compound 0.1 µM, first compound 0.00316 µM): 98.3%
viability, T/C (second compound 0.1 µM, first compound 0.01 µM): 98.6%
viability, T/C [6]: 93.7%
viability, T/C [7]: 86.6%
viability, T/C [8]: 81.9%
viability, T/C [9]: 78.7%
viability, T/C (second compound 0.316 µM, first compound 0.00316 µM): 95.3%
viability, T/C (second compound 0.316 µM, first compound 0.01 µM): 91.7%
viability, T/C [12]: 99.7%
viability, T/C [13]: 90.5%
viability, T/C [14]: 85.6%
viability, T/C [15]: 80.6%
viability, T/C (second compound 1 µM, first compound 0.00316 µM): 93.9%
viability, T/C (second compound 1 µM, first compound 0.01 µM): 95.6%
viability, T/C [18]: 87.9%
viability, T/C [19]: 91.2%
viability, T/C [20]: 88.7%
viability, T/C [21]: 88.5%
viability, T/C (second compound 3.16 µM, first compound 0.00316 µM): 104%
viability, T/C (second compound 3.16 µM, first compound 0.01 µM): 102%
viability, T/C [24]: 86.8%
viability, T/C [25]: 77.2%
viability, T/C [26]: 104%
viability, T/C [27]: 86.4%
viability, T/C (second compound 10 µM, first compound 0.00316 µM): 117%
viability, T/C (second compound 10 µM, first compound 0.01 µM): 103%
viability, T/C [30]: 75.3%
viability, T/C [31]: 83.9%
viability, T/C [32]: 86.5%
viability, T/C [33]: 85.6%

IC50 [1]: 7180 nM
IC50 [2]: 6480 nM
IC50 [3]: 8110 nM
IC50 [4]: 5350 nM
IC50 [5]: < 31.6 nM
SMILES: Nc1ccccc1NC(=O)c1ccc(CNC(=O)OCc2cccnc2)cc1 + Cc1cncc(-c2nc(NCCc3c[nH]c4ccccc34)c3ncn(C(C)C)c3n2)c1
viability, T/C [6]: 94.9%
viability, T/C [7]: 96.5%
viability, T/C [8]: 99.3%
viability, T/C [9]: 107%
viability, T/C [10]: 77%
viability, T/C [11]: 39.1%
viability, T/C [12]: 110%
viability, T/C [13]: 97.2%
viability, T/C [14]: 105%
viability, T/C [15]: 105%
viability, T/C [16]: 72.3%
viability, T/C [17]: 36.5%
viability, T/C [18]: 118%
viability, T/C [19]: 116%
viability, T/C [20]: 113%
viability, T/C [21]: 108%
viability, T/C [22]: 72%
viability, T/C [23]: 45.1%
viability, T/C [24]: 77.8%
viability, T/C [25]: 81.4%
viability, T/C [26]: 70.3%
viability, T/C [27]: 64.2%
viability, T/C [28]: 68.1%
viability, T/C [29]: 33.8%
viability, T/C [30]: 11.6%
viability, T/C [31]: 7.91%
viability, T/C [32]: 7.77%
viability, T/C [33]: 9.69%
viability, T/C [34]: 7.99%
viability, T/C [35]: 3.12%
